Some test systems named below: SF-295; DLD-1; A498; M14; RPMI-8226; SNB-75; TK-10; UACC-257; SF-268; A549; NCI-H522; SW-620; HOP-62; LOX IMVI; SK-MEL-5; K562; MDA-MB-435; MDA-MB-231; T47D; DU-145.
What all share (assay): NCI anticancer screen, dose series, 48 h

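Interpolation was linear, between the two tested concentrations surrounding the appropriate level; five concentrations were tested over 48 hours in 96-well plates. GI50: concentration for 50% inhibition of growth.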 Calls of active or inactive are those of the source. Rule as the data show it: active = GI50 up to about 1.1 µM and inactive = higher.

On to `CC1=C2C(O)C(C(C)CO)C(O)CC2(C)C(O)CC1` (configuration not stated), for which the GI50 with SF-295, with DLD-1, in the test on A498, with M14, with RPMI-8226 and in the test on SNB-75 was > 100 µM (inactive) throughout. Moreover, the GI50 in the test on TK-10, with UACC-257, in the test with SF-268, with A549, in the test with NCI-H522 and in the test on SW-620 was > 100 µM (inactive) in each case. Moreover, the GI50 in the test with HOP-62, in the test on LOX IMVI and with SK-MEL-5 was > 100 µM (inactive) each time.

With `CCOC(=O)/C(=C/c1ccccn1)C(=O)c1ccccc1`, the GI50 is 13 µM (inactive) in the test on SF-295; 10.4 µM (inactive) with DLD-1; 18.9 µM (inactive) in the test on A498; 15.1 µM (inactive) with M14; 3.42 µM (inactive) in the test with RPMI-8226; 13.8 µM (inactive) in the test on SNB-75. Moreover, the GI50 is 17.5 µM (inactive) with TK-10; 13.8 µM (inactive) with UACC-257; 5.19 µM (inactive) with K562; 19.1 µM (inactive) in the test with SF-268; 19.2 µM (inactive) with A549; 5.47 µM (inactive) with NCI-H522. In addition, the GI50 is 14.2 µM (inactive) in the test on SW-620, 15.2 µM (inactive) with HOP-62, 2.48 µM (inactive) with LOX IMVI and 14.3 µM (inactive) with SK-MEL-5.

As to `Nc1cc2c(cc1[N+](=O)[O-])[nH]c1c(-c3ccccc3)nccc12`, the GI50 with SF-295 was 21.7 µM (inactive); in the test with DLD-1, 8.2 µM (inactive); in the test on A498 it was 30.5 µM (inactive); in the test on RPMI-8226, 8.24 µM (inactive); in the test with SNB-75, 19.2 µM (inactive); in the test on UACC-257, 18 µM (inactive). The GI50 in the test on K562 was 7.57 µM (inactive); in the test with SF-268, 25.2 µM (inactive); in the test with A549 it was 17.4 µM (inactive); in the test on NCI-H522 it was 12 µM (inactive); in the test with SW-620 it was 25.9 µM (inactive); with HOP-62, 15.2 µM (inactive). Further, the GI50 in the test on LOX IMVI was 13.6 µM (inactive); with SK-MEL-5, 13.5 µM (inactive).

As for `Cc1cc(NC(=O)C(=O)Cc2nc3ccccc3s2)ccc1Cl`, the GI50 in the test with SF-295, in the test on DLD-1, in the test on MDA-MB-435, in the test with A498, in the test on M14 and with RPMI-8226 was > 100 µM (inactive) in each case. Further, the GI50 with SNB-75 is > 100 µM (inactive); in the test on TK-10, > 100 µM (inactive); in the test with UACC-257, > 93.3 µM (inactive); in the test on K562 it was > 100 µM (inactive); with SF-268 it was > 100 µM (inactive); in the test with A549 it was > 100 µM (inactive). In addition, the GI50 with NCI-H522, in the test with SW-620, in the test with HOP-62, in the test with MDA-MB-231, in the test with T47D and with LOX IMVI was > 100 µM (inactive) each time. Besides, the GI50 with SK-MEL-5 and in the test with DU-145 was > 100 µM (inactive) each time.

As to `Cc1cccc(/N=C2\NC(=O)C(CC(=O)Nc3ccc(C)cc3C)S2)c1` (configuration not stated), the GI50 was 61.9 µM (inactive) in the test with SF-295; > 100 µM (inactive) with DLD-1; > 100 µM (inactive) with A498; > 100 µM (inactive) in the test on M14; 55.3 µM (inactive) with RPMI-8226; > 100 µM (inactive) with SNB-75. Also, the GI50 with TK-10 was > 100 µM (inactive); in the test on UACC-257, > 100 µM (inactive); in the test on K562 it was 65.8 µM (inactive); with SF-268, > 100 µM (inactive); with A549, > 100 µM (inactive); in the test on NCI-H522, 64.3 µM (inactive). The GI50 in the test on SW-620 is > 100 µM (inactive); in the test with LOX IMVI it was > 100 µM (inactive); in the test on SK-MEL-5 it was 94 µM (inactive).

`CC(=O)OCC1OC(Nc2nc(O)n(C)c(=O)c2-c2csc(N)n2)C(OC(C)=O)C(OC(C)=O)C1OC(C)=O` (configuration not stated): the GI50 in the test with SF-295, in the test with DLD-1, in the test on A498, with M14, in the test on RPMI-8226 and with SNB-75 was > 100 µM (inactive) each time. In addition, the GI50 in the test with TK-10, in the test on UACC-257, with K562, with SF-268, with A549 and with NCI-H522 was > 100 µM (inactive) in each case. In addition, the GI50 in the test with SW-620, with HOP-62, with LOX IMVI and with SK-MEL-5 was > 100 µM (inactive) throughout.

Regarding `COc1cccc2c1C(=O)c1c(O)c3c(c(O)c1C2=O)C[C@@](O)(C(=O)CO)CC3OC1CC(NCCCCC(OC(C)=O)OC(C)=O)C(O)C(C)O1` (some centres not stated), the GI50 is 0.0034 µM (active) in the test on SF-295; 0.00342 µM (active) in the test with DLD-1; 0.00365 µM (active) in the test with A498; 0.00169 µM (active) in the test on M14; 0.00261 µM (active) with RPMI-8226; 0.00137 µM (active) in the test with SNB-75. Also, the GI50 in the test on TK-10 is 0.00322 µM (active); in the test on UACC-257 it was 0.00468 µM (active); in the test with K562, 0.00197 µM (active); with SF-268 it was 0.00313 µM (active); in the test on A549, 0.00243 µM (active); in the test with NCI-H522, 0.0015 µM (active). In addition, the GI50 with SW-620 is 0.00259 µM (active); with HOP-62, 0.0021 µM (active); in the test with LOX IMVI, 0.00179 µM (active).

For `Cc1c2ccc3ccccc3c2c[n+]2ccccc12`, the GI50 was 5.89 µM (inactive) with SF-295; 24 µM (inactive) in the test with DLD-1; 12.6 µM (inactive) in the test on MDA-MB-435; > 47.5 µM (inactive) in the test with A498; 15.8 µM (inactive) in the test on M14; 19.5 µM (inactive) in the test with RPMI-8226. The GI50 in the test on SNB-75 was 6.41 µM (inactive); in the test on TK-10 it was 35.7 µM (inactive); in the test on UACC-257 it was 7.62 µM (inactive); in the test with K562, 10.7 µM (inactive); in the test with SF-268, 1.36 µM (inactive); in the test with A549, 3.72 µM (inactive). The GI50 is 3.41 µM (inactive) with NCI-H522; 4.2 µM (inactive) in the test on SW-620; 7.93 µM (inactive) in the test on HOP-62; 21.4 µM (inactive) in the test on MDA-MB-231; 1.36 µM (inactive) with T47D; 42.9 µM (inactive) in the test on LOX IMVI. The values for the GI50 in the test with SK-MEL-5 and with DU-145 were 6.79 µM (inactive) and 11.4 µM (inactive), respectively.

On to `O=NN(CCCl)C(=O)NC1CCC(CC2CCC(NC(=O)N(CCCl)N=O)CC2)CC1` (configuration not stated), for which the GI50 with SF-295 was 0.986 µM (active); with DLD-1, 23.6 µM (inactive); in the test with A498 it was 31.4 µM (inactive); with M14, 96.8 µM (inactive); in the test with RPMI-8226 it was 1.96 µM (inactive); with SNB-75, 16.6 µM (inactive). Moreover, the GI50 is 32.5 µM (inactive) with TK-10; 3.29 µM (inactive) in the test on UACC-257; 2.26 µM (inactive) in the test with K562; 0.836 µM (active) in the test with SF-268; 33 µM (inactive) in the test on A549; 1.53 µM (inactive) in the test on NCI-H522. Moreover, the GI50 with SW-620 is 23.3 µM (inactive); in the test with HOP-62 it was 1.97 µM (inactive); in the test with LOX IMVI it was 0.91 µM (active); in the test with SK-MEL-5 it was 32 µM (inactive).

With `CC(C)c1ccc(O)c(=O)cc1` [GAMMA-THUJAPLICIN], the GI50 in the test with SF-295 is 4.02 µM (inactive); in the test with DLD-1, 5.56 µM (inactive); in the test with A498, 19.6 µM (inactive); in the test on M14, 7.64 µM (inactive); in the test with RPMI-8226, 5.13 µM (inactive); in the test with SNB-75, 20.6 µM (inactive). Also, the GI50 in the test on TK-10 was 16.1 µM (inactive); in the test with UACC-257, 3.38 µM (inactive); in the test on K562 it was 9.33 µM (inactive); with SF-268, 4.06 µM (inactive); in the test on A549, 6.59 µM (inactive); in the test on NCI-H522, 3.39 µM (inactive). The GI50 is 4.78 µM (inactive) in the test with SW-620, 4.41 µM (inactive) in the test with HOP-62, 4.29 µM (inactive) in the test on LOX IMVI and 9.35 µM (inactive) in the test with SK-MEL-5.

Regarding `C/C(=C1/N=C(c2cc([N+](=O)[O-])ccc2Cl)N(C2=CC=C(Cl)CC2)C1=O)c1cc2ccccc2oc1=O`, the GI50 is 41.7 µM (inactive) in the test on SF-295; 20 µM (inactive) with DLD-1; 23.4 µM (inactive) in the test with A498; 23.9 µM (inactive) in the test with M14; 32.4 µM (inactive) with RPMI-8226; 32.4 µM (inactive) in the test on SNB-75. In addition, the GI50 in the test on UACC-257 was 26.5 µM (inactive); in the test with K562 it was > 100 µM (inactive); in the test with SF-268 it was 36.9 µM (inactive); with A549, 27.9 µM (inactive); in the test with NCI-H522, 14.4 µM (inactive); in the test with SW-620 it was 36.5 µM (inactive). Moreover, the GI50 with HOP-62 is 31.5 µM (inactive); in the test with LOX IMVI, 20.4 µM (inactive); in the test on SK-MEL-5, 24.3 µM (inactive).

On to `O=C1CCCn2c3ccccc3c3ccnc1c32`, for which the GI50 was 38.9 µM (inactive) with SF-295; 38.3 µM (inactive) in the test with DLD-1; 14.9 µM (inactive) in the test with A498; 23.6 µM (inactive) in the test with RPMI-8226; 34.3 µM (inactive) in the test on SNB-75; 29.9 µM (inactive) in the test with UACC-257. For the same molecule, the GI50 with K562 was 40.5 µM (inactive); in the test with SF-268 it was 30 µM (inactive); in the test on A549, 44.6 µM (inactive); in the test with NCI-H522 it was 34.8 µM (inactive); in the test on SW-620 it was 41.1 µM (inactive); in the test on HOP-62, 43.1 µM (inactive). Further, the values for the GI50 in the test on LOX IMVI and in the test with SK-MEL-5 were 36.1 µM (inactive) and 34 µM (inactive), respectively.

The values above are taken from ChEMBL document CHEMBL1201862, “PubChem BioAssay data set” (2004).
